Values of other authors as cited in US20240315301A1, “Composition for Improving Vision” (ALGAE HEALTH SCIENCES CO., LTD., priority 2021, published 2024).

Settings: fold more than vitamin E

SMILES: CC1=C(/C=C/C(C)=C/C=C/C(C)=C/C=C/C=C(C)/C=C/C=C(C)/C=C/C2=C(C)C(=O)C(O)CC2(C)C)C(C)(C)CC(O)C1=O (stereo not drawn) [Astaxanthin, 3, 3′-dihydroxy-β, β-carotene-4, 4′-dione]
- antioxidant activity relative to vitamin E (VE): 1000 times
